This passage reports viability, T/C and IC50 results from PubChem BioAssay AID2060627 (Molecular Pharmacology Branch, DTP, NCI, 2025).

Where “and” joins values, the source holds several entries; their conditions need not be identical. Identical values can stand only once.

For this assay, the system named is 156681-154-R-J1-PDC complex spheroid viability. Briefly: Anticancer human tumor 156681-154-R-J1-PDC patient-derived melanoma cell line growth inhibition [CLK]. To be noted: for viability, T/C: stronger effect = lower value. The text has this:
A high-throughput screen of multi-cell type tumor spheroids was designed to identify active combinations of […] and targeted small molecules. Complex spheroids include a stromal component modeled by human endothelial cells (HUVEC) and fibroblasts modeled by human mesenchymal stem cells (MSCs). The concentration ranges selected for each drug and investigational agent were based upon clinically achievable concentrations if the clinical Cmax of the agent was known.
Compounds. The drugs and investigational agents: cirtuvivint (SM08502; NSC835563), CC-671 (NSC850746), vemurafenib (NSC761431), tapotoclax (NSC804041), sotorasib (NSC818433), adagrasib (NSC831453), MRTX-1133 (NSC836407), BAY2416964 (NSC825713), copanlisib (NSC816437), inavolisib (NSC800729), abemaciclib (NSC768073), osimertinib (NSC779217), entinostat (NSC756642), eltanexor (KPT-8602, NSC794443), venetoclax (NSC766270), ceralasertib (NSC777638), bortezomib (NSC756655), olaparib (NSC753686), talazoparib (NSC767125), alisertib (NSC759677), peposertib (NSC802822), gemcitabine (NSC613327), 5-fluorouracil (NSC19893), SN-38 (NSC673596), oxaliplatin (NSC266046), paclitaxel (NSC125973), and doxorubicin (NSC123127), were obtained from the National Cancer Institute (NCI) Developmental Therapeutics Program Chemical Repository. The FDA-approved anticancer drug set is available from the Developmental Therapeutics Program at https://dtp.cancer.gov/organization/dscb/obtaining/available plates.htm. […] The stock solutions were prepared in dimethyl sulfoxide (DMSO, Sigma-Aldrich, St. Louis, MO, cat. D2650), except for the platinum complexes which were prepared in saline (Quality Biological, Gaithersburg, MD, cat. 114-055-101), at 800-fold the tested concentration and stored at -70 degrees C prior to their use. All drugs and investigational agents were tested over a range starting from a high concentration at or near the clinical Cmax and decreasing in half-log increments. If the clinical Cmax for an agent had not been determined, the highest concentration tested was 10 microM.
Cell Culture. All cells were maintained in an incubator at 37 degrees C and 5% CO2 with 95% humidity. The PDC lines were cultured according to standard operating procedures established by the NCI PDMR. Briefly, all PDCs were thawed and cultured in Matrigel-coated flasks prepared with a working solution of 1X Ham's F-12 nutrient mix, without supplementation (Invitrogen, Waltham, MA, cat. 11765054), 100 U/mL penicillin-streptomycin (Invitrogen, cat. 15140122), and 2.5% Matrigel (Corning Inc., Corning, NY, cat. 354248) for the first three passages. The 947758-054-R-J2-PDC line was cultured in 6B/Colon 1A media, which includes advanced DMEM/F-12 (Thermo Fisher Scientific, cat. 12634028), 10 mM HEPES (Thermo Fisher Scientific, cat. 15630080), 1X GlutaMAX supplement (Thermo Fisher Scientific, cat. 35050061), 0.1 mg/mL primocin (InvivoGen, cat. ant-pm-2), 10% defined fetal bovine serum, heat inactivated (HyClone Laboratories Inc., cat. SH30070.03HI), 1.25 mM N-Acetyl-L-cysteine (Sigma-Aldrich, cat. A9165), 10 mM nicotinamide (Sigma-Aldrich, cat. N0636), 1X B-27 supplement (Thermo Fisher Scientific, cat. 17504044), 1X N-2 supplement (Thermo Fisher Scientific, cat. 17502048), and 10 microM Y-27632 dihydrochloride (Tocris Bioscience, cat. 1254). The 876862-298-R-J1-PDC was cultured in 6E media, which includes all 6B/Colon 1A media components plus 50% L-WRN conditioned media (ATCC, cat. CRL-3276), 50 ng/mL recombinant human EGF recombinant protein (hEGF; Thermo Fisher Scientific, cat. PHG0311), 10 ng/mL recombinant human fibroblast growth factor 10 (hGFG-10; PeproTech, cat. 100-26), 1 ng/mL recombinant human fibroblast growth factor 2 (hFGF-2; PeproTech, cat. 100-18B), and 1 µM prostaglandin E2 (PGE2; Tocris, cat. 2296). The 227483-062-R1-J1-PDC line was cultured in Panc media, containing all 6E components except hFGF-2, with the addition of 500 nM SB-431542 (Selleckchem, cat. S1067) and 10 nM gastrin (Tocris, cat. 3006). […]

A word on the viability, T/C: it is the ratio of treated to control. By IC50 is commonly meant the concentration that gives 50% inhibition.
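Note: spheroids exposed to the agents for seven days.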

As for `C=C(F)C(=O)N1CCN(c2nc(OCC3CCCN3C)nc3c2CCN(c2cccc4cccc(Cl)c24)C3)CC1CC#N` (configuration not stated), the viability, T/C (compound 0.0316 µM) is 62.4% and 97.8%; the viability, T/C (compound 0.1 µM) is 68.8% and 78%; the viability, T/C (compound 0.316 µM) was 85% and 95.9%; the viability, T/C (compound 1 µM) was 51.9% and 90.4%; the viability, T/C (compound 3.16 µM) is 11.4% and 28.5%; the viability, T/C (compound 10 µM) is 1.93% and 0.2%. The IC50 (curve of compound) was 1100 nM and 2120 nM.
